This is an account of results in patent US20230330034A1, “COVALENTLY CROSS-LINKED GLYCOSYLATED MUCIN NANOPARTICLES AS SYSTEMS FOR THE DELIVERY AND RELEASE OF ACTIVE INGREDIENTS AND BIOMOLECULES” (priority 2020, published 2023).

Data set [1] concerns H358 lung cancer cell line. The experiment in a line: Antiproliferative activity, % of cell viability. The data set is classed as cell-based. Conditions: Homo sapiens, NCI-H358, read-out: 1050.
For data set [2] the following is noted: PAMPA, 5 h, 200 µM.

Structures are written as SMILES.

Take `COc1cccc2c1C(=O)c1c(O)c3c(c(O)c1C2=O)C[C@@](O)(C(=O)CO)C[C@@H]3O[C@H]1C[C@H](N)[C@H](O)[C@H](C)O1` [doxorubicin]: in data set [1], the IC50 was determined as 0.3 nM.

Consider `CC(=O)Nc1cccc(-n2c(=O)n(C3CC3)c(=O)c3c(Nc4ccc(I)cc4F)n(C)c(=O)c(C)c32)c1` [trametinib], for which the IC50 in data set [1] came out at 7 nM.

Consider `CC(C)NCC(O)COc1cccc2ccccc12` (centres unmarked) [propranolol], for which, in data set [2], the “Ca (t)” value turned out to be 2.01 µM, the “Cd(t)” value was 6.6 µM and the Ceq is 3.85 µM.
